Results reported in ChEMBL document CHEMBL1201862, “PubChem BioAssay data set” (2004).
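Compound exposure: 48 hours, 5 concentrations, 96-well plates. GI50 marks 50% less growth.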 Activity calls are given as the source filed them. Rule as the data show it: active = GI50 up to about 1.1 µM and inactive = higher.

What was measured:
Test in all cases: DTP human tumour cell line panel, 48 h
SNB-78 = tested on: SNB-78
NCI-H226 = tested on: NCI-H226
HCT-116 = tested on: HCT-116
RPMI-8226 = tested on: RPMI-8226
UACC-257 = tested on: UACC-257
UACC-62 = tested on: UACC-62
SF-539 = tested on: SF-539
KM12 = tested on: KM12
OVCAR-8 = tested on: OVCAR-8
DMS-273 = tested on: DMS-273
SW-620 = tested on: SW-620
M19-MEL = tested on: M19-MEL
HCC 2998 = tested on: HCC 2998
OVCAR-5 = tested on: OVCAR-5
COLO 205 = tested on: COLO 205
RXF 393 = tested on: RXF 393
U-251 = tested on: U-251
HCT-15 = tested on: HCT-15
DLD-1 = tested on: DLD-1
HOP-92 = tested on: HOP-92
SK-MEL-28 = tested on: SK-MEL-28
MOLT-4 = tested on: MOLT-4
K562 = tested on: K562
OVCAR-3 = tested on: OVCAR-3
UO-31 = tested on: UO-31
CCRF-CEM = tested on: CCRF-CEM
DMS-114 = tested on: DMS-114
ACHN = tested on: ACHN
SNB-19 = tested on: SNB-19
A549 = tested on: A549
OVCAR-4 = tested on: OVCAR-4
IGROV-1 = tested on: IGROV-1
SF-295 = tested on: SF-295
HL-60 = tested on: HL-60
HT-29 = tested on: HT-29
NCI-H23 = tested on: NCI-H23
SN12C = tested on: SN12C
CAKI-1 = tested on: CAKI-1
TK-10 = tested on: TK-10
EKVX = tested on: EKVX
SNB-75 = tested on: SNB-75
SK-MEL-5 = tested on: SK-MEL-5
RXF 631 = tested on: RXF 631
786-0 = tested on: 786-0
M14 = tested on: M14
NCI-H460 = tested on: NCI-H460
SF-268 = tested on: SF-268
HOP-62 = tested on: HOP-62
LOX IMVI = tested on: LOX IMVI
SK-OV-3 = tested on: SK-OV-3
SK-MEL-2 = tested on: SK-MEL-2
A498 = tested on: A498
HOP-18 = tested on: HOP-18
LXFL 529 = tested on: LXFL 529
NCI-H522 = tested on: NCI-H522
Malme-3M = tested on: Malme-3M
SR = tested on: SR

Measured: GI50

CN(C)CCNC(=O)c1cccc2[nH]c(-c3ccccc3)nc12
inactive: SNB-78 32.1 µM | NCI-H226 16.4 µM | HCT-116 9.73 µM | RPMI-8226 32.1 µM | UACC-257 16.9 µM | UACC-62 18.5 µM | SF-539 12.2 µM | KM12 22.4 µM | OVCAR-8 > 10 µM | DMS-273 14.5 µM | SW-620 13.1 µM | M19-MEL 19.4 µM | HCC 2998 15.3 µM | OVCAR-5 15.7 µM | COLO 205 11.6 µM | RXF 393 17.2 µM | U-251 25.4 µM | DLD-1 16.3 µM | HOP-92 20.3 µM | SK-MEL-28 18.3 µM | MOLT-4 4.91 µM | K562 26.4 µM | OVCAR-3 21.6 µM | UO-31 12.8 µM | CCRF-CEM 15.9 µM | DMS-114 17.3 µM | ACHN 15.3 µM | SNB-19 32.5 µM | A549 16.3 µM | OVCAR-4 28.4 µM | IGROV-1 21.7 µM | SF-295 25.2 µM | HL-60 21.7 µM | HT-29 19.8 µM | NCI-H23 17.4 µM | SN12C 16.7 µM | CAKI-1 24.7 µM | TK-10 18.5 µM | EKVX 23.9 µM | SNB-75 37.8 µM | SK-MEL-5 15.1 µM | RXF 631 24.4 µM | 786-0 36.3 µM | M14 17.3 µM | NCI-H460 15.4 µM | SF-268 18.5 µM | HOP-62 22.3 µM | LOX IMVI 15.6 µM | SK-OV-3 17.3 µM | SK-MEL-2 18.5 µM | A498 13.1 µM | HOP-18 11.9 µM
15.8 µM: HCT-15

CC(C)(CN1CCCCC1)C(=O)/C=C/c1ccc(Cl)c(Cl)c1
active: HOP-92 1.03 µM | CCRF-CEM 1.09 µM
inactive: SNB-78 1.51 µM | NCI-H226 1.71 µM | HCT-116 1.65 µM | LXFL 529 1.46 µM | RPMI-8226 2.52 µM | UACC-257 1.18 µM | UACC-62 1.76 µM | SF-539 2.07 µM | KM12 1.71 µM | OVCAR-8 > 100 µM | DMS-273 1.69 µM | NCI-H522 1.21 µM | SW-620 1.37 µM | M19-MEL 1.63 µM | HCC 2998 1.74 µM | OVCAR-5 1.71 µM | COLO 205 1.5 µM | RXF 393 1.17 µM | U-251 1.37 µM | DLD-1 1.67 µM | SK-MEL-28 1.86 µM | MOLT-4 1.63 µM | K562 1.59 µM | OVCAR-3 1.59 µM | UO-31 1.63 µM | DMS-114 1.56 µM | ACHN 1.55 µM | SNB-19 3.15 µM | A549 1.98 µM | OVCAR-4 1.51 µM | IGROV-1 2 µM | SF-295 2.45 µM | HL-60 1.53 µM | HT-29 1.61 µM | NCI-H23 1.71 µM | SN12C 1.56 µM | Malme-3M 1.83 µM | TK-10 1.48 µM | EKVX 1.76 µM | SNB-75 1.48 µM | SK-MEL-5 2.07 µM | SR 1.49 µM | RXF 631 1.72 µM | 786-0 1.38 µM | M14 1.7 µM | NCI-H460 1.65 µM | SF-268 1.8 µM | HOP-62 1.95 µM | LOX IMVI 1.37 µM | SK-OV-3 2.34 µM | SK-MEL-2 1.73 µM | A498 1.67 µM | HOP-18 1.52 µM
1.41 µM: HCT-15
